Results reported in PMC6429263, “Evolution and Antibacterial Evaluation of 8-Hydroxy-cycloberberine Derivatives as a Novel Family of Antibacterial Agents Against MRSA” (Molecules, 2019).
“And” between values parts separate entries of the source, which are not always exact repeats. Equal entries are not always repeated. Structures can show the parent of a compound that is named as a salt.

Key:
MSSE ATCC 12228 = test: MIC, agar dilution, MSSE ATCC 12228; type: cell-based, S. epidermidis; settings: Staphylococcus epidermidis, ATCC12228; MSSE ATCC 12228; read-out: MIC
MRSE 16-5 = test: MIC, agar dilution, MRSE 16-5; type: cell-based, S. epidermidis; settings: Staphylococcus epidermidis; MRSE 16-5; read-out: MIC
MRSA 13-23 = test: MIC, agar dilution, MRSA 13-23; type: cell-based; settings: Staphylococcus aureus; MRSA 13-23; read-out: MIC
MSSA 16-1 = test: MIC, agar dilution, MSSA 16-1 (clinical isolate); type: cell-based, S. aureus; settings: Staphylococcus aureus; MSSA 16-1, isolated from patients in China; read-out: MIC
S.s ATCC 15305 = test: MIC, agar dilution, S.s ATCC 15305; type: cell-based; settings: Staphylococcus saprophyticus, ATCC15305; S. saprophyticus ATCC 15305; read-out: MIC
MSSA ATCC 29213 = test: MIC, agar dilution, MSSA ATCC 29213; type: cell-based, S. aureus; settings: Staphylococcus aureus; MSSA ATCC 29213; read-out: MIC
MSSE 16-5 = test: MIC, agar dilution, MSSE 16-5 (clinical isolate); type: cell-based, S. epidermidis; settings: Staphylococcus epidermidis; MSSE 16-5, isolated from patients in China; read-out: MIC
MRSA ATCC -BAA-976 = test: MIC, agar dilution, MRSA ATCC-BAA-976 (clindamycin-resistant); type: cell-based; settings: Staphylococcus aureus; MRSA ATCC-BAA-976, clindamycin-resistant S. aureus; read-out: MIC
VISA ATCC 700698 = test: MIC, agar dilution, VISA ATCC 700698; type: cell-based; settings: Staphylococcus aureus; VISA ATCC 700698; read-out: MIC
MRSA 13-18 = test: MIC, agar dilution, MRSA 13-18; type: cell-based; settings: Staphylococcus aureus; MRSA 13-18; read-out: MIC
MSSA 15 = test: MIC, agar dilution, MSSA 15 (clinical isolate); type: cell-based, S. aureus; settings: Staphylococcus aureus; MSSA 15, isolated from patients in China; read-out: MIC
S.h ATCC 35982 = test: MIC, agar dilution, S.h ATCC 35982; type: cell-based; settings: Staphylococcus hominis, ATCC35982; S. hominis ATCC 35982; read-out: MIC
VISA ATCC 700699 = test: MIC, agar dilution, VISA ATCC 700699; type: cell-based; settings: Staphylococcus aureus; VISA ATCC 700699; read-out: MIC
MRSA 16-34 = test: MIC, agar dilution, MRSA 16-34; type: cell-based; settings: Staphylococcus aureus; MRSA 16-34; read-out: MIC
MRSA ATCC-B AA-1708 = test: MIC, agar dilution, MRSA ATCC-BAA-1708 (mupA positive); type: cell-based; settings: Staphylococcus aureus; MRSA ATCC-BAA-1708, mupA positive (mupirocin resistance); read-out: MIC
MRSA ATCC 43300 = test: MIC, agar dilution, MRSA ATCC 43300; type: cell-based; settings: Staphylococcus aureus; MRSA ATCC 43300; read-out: MIC
MRSE 13-3 = test: MIC, agar dilution, MRSE 13-3; type: cell-based, S. epidermidis; settings: Staphylococcus epidermidis; MRSE 13-3; read-out: MIC

COc1ccc2c(c[n+]3ccc4cc5c(c6c(Cc7ccccc7)cc2c3c46)OCO5)c1O (as salt: chloride) [13a, 1,2-Methylenedioxy-8-hydroxy-9-methoxy-13-benzylcycloberberine chloride]
melting point: 248 to 250 °C

COc1ccc2c(c[n+]3ccc4cc5c(c6c(Cc7ccc(F)cc7)cc2c3c46)OCO5)c1O (as salt: chloride) [13b, 1,2-Methylenedioxy-8-hydroxy-9-methoxy-13-p-fluorobenzylcycloberberine chloride]
melting point: 203 to 205 °C

COc1ccc2c(c[n+]3ccc4cc5c(c6c(Cc7ccc(F)cc7F)cc2c3c46)OCO5)c1O (as salt: chloride) [13c, 1,2-Methylenedioxy-8-hydroxy-9-methoxy-13-2′,4′-difluorobenzylcycloberberine chloride]
melting point: 218 to 220 °C

COc1ccc2c(c[n+]3ccc4cc5c(c6c(Cc7c(F)cccc7F)cc2c3c46)OCO5)c1O (as salt: chloride) [13d, 1,2-Methylenedioxy-8-hydroxy-9-methoxy-13-2′,6′-difluorobenzylcycloberberine chloride]
melting point: 214 to 216 °C

COc1ccc2c(c[n+]3ccc4cc5c(c6c(Cc7ccc(Cl)cc7)cc2c3c46)OCO5)c1O (as salt: chloride) [13e, 1,2-Methylenedioxy-8-hydroxy-9-methoxy-13-p-chlorobenzylcycloberberine chloride]
melting point: 199 to 201 °C

COc1ccc2c(c[n+]3ccc4cc5c(c6c(Cc7ccc(Br)cc7)cc2c3c46)OCO5)c1O (as salt: chloride) [13f, 1,2-Methylenedioxy-8-hydroxy-9-methoxy-13-p-bromobenzylcycloberberine chloride]
melting point: 207 to 209 °C

COc1ccc2c(c[n+]3ccc4cc5c(c6c(Cc7ccccc7C)cc2c3c46)OCO5)c1O (as salt: chloride) [13g, 1,2-Methylenedioxy-8-hydroxy-9-methoxy-13-o-methylbenzylcycloberberine chloride]
melting point: 203 to 205 °C

COc1ccc2c(c[n+]3ccc4cc5c(c6c(Cc7cccc(C)c7)cc2c3c46)OCO5)c1O (as salt: chloride) [13h, 1,2-Methylenedioxy-8-hydroxy-9-methoxy-13-m-methylbenzylcycloberberine chloride]
melting point: 203 to 205 °C

COc1ccc2c(c[n+]3ccc4cc5c(c6c(Cc7ccc(C)cc7)cc2c3c46)OCO5)c1O (as salt: chloride) [13i, 1,2-Methylenedioxy-8-hydroxy-9-methoxy-13-p-methylbenzylcycloberberine chloride]
melting point: 229 to 231 °C

COc1ccc2c(c[n+]3ccc4cc5c(c6c(Cc7cc(C)cc(C)c7)cc2c3c46)OCO5)c1O (as salt: chloride) [13j, 1,2-Methylenedioxy-8-hydroxy-9-methoxy-13-3′,5′-dimethylbenzylcycloberberine chloride]
melting point: 218 to 220 °C

COc1ccc2c(c[n+]3ccc4cc5c(c6c(Cc7ccc(C(C)(C)C)cc7)cc2c3c46)OCO5)c1O (as salt: chloride) [13k, 1,2-Methylenedioxy-8-hydroxy-9-methoxy-13-p-tert-butylmethylbenzylcyclo berberine chloride]
melting point: 212 to 214 °C

COc1ccc2c(c[n+]3ccc4cc5c(c6c(Cc7ccc(OC(F)(F)F)cc7)cc2c3c46)OCO5)c1O (as salt: chloride) [13l, 1,2-Methylenedioxy-8-hydroxy-9-methoxy-13-p-trifluoromethoxybenzylcyclo berberine chloride]
melting point: 185 to 187 °C

COc1ccc2c(c[n+]3ccc4cc5c(c6c(Cc7ccccc7C#N)cc2c3c46)OCO5)c1O (as salt: chloride) [13m, 1,2-Methylenedioxy-8-hydroxy-9-methoxy-13-o-cyanbenzylcycloberberine chloride]
melting point: 209 to 211 °C

COc1ccc2c(c[n+]3ccc4cc5c(c6c(Cc7cccc(C#N)c7)cc2c3c46)OCO5)c1O (as salt: chloride) [13n, 1,2-Methylenedioxy-8-hydroxy-9-dimethoxy-13-m-cyanbenzylcycloberberine chloride]
melting point: 189 to 191 °C

COc1ccc2c(c[n+]3ccc4cc5c(c6c(Cc7ccc(C#N)cc7)cc2c3c46)OCO5)c1O (as salt: chloride) [13o, 1,2-Methylenedioxy-8-hydroxy-9-dimethoxy-13-p-cyanbenzylcycloberberine chloride]
melting point: 197 to 199 °C

COc1ccc2c(c[n+]3ccc4cc5c(c6c(Cc7ccccc7[N+](=O)[O-])cc2c3c46)OCO5)c1O (as salt: chloride) [13p, 1,2-Methylenedioxy-8-hydroxy-9-methoxy-13-o-nitrobenzylcycloberberine chloride]
melting point: 199 to 201 °C

COc1ccc2c(c[n+]3ccc4cc5c(c6c(Cc7cccc([N+](=O)[O-])c7)cc2c3c46)OCO5)c1O (as salt: chloride) [13q, 1,2-Methylenedioxy-8-hydroxy-9-methoxy-13-m-nitrobenzylcycloberberine chloride]
melting point: 186 to 188 °C

COc1ccc2c(c[n+]3ccc4cc5c(c6c(Cc7ccc([N+](=O)[O-])cc7)cc2c3c46)OCO5)c1O (as salt: chloride) [13r, 1,2-Methylenedioxy-8-hydroxy-9-methoxy-13-p-nitrobenzylcycloberberine chloride]
melting point: 186 to 188 °C

COc1ccc2c(c[n+]3ccc4cc5c(c6c(C(C)c7ccccc7)cc2c3c46)OCO5)c1O (stereo not shown) (as salt: chloride) [13s, 1,2-Methylenedioxy-8-hydroxy-9-methoxy-13-1′-phenylethylcycloberberine chloride]
melting point: 213 to 215 °C

COC(=O)C(c1ccccc1)c1cc2c3ccc(OC)c(O)c3c[n+]3ccc4cc5c(c1c4c23)OCO5 (stereo not shown) (as salt: chloride) [13t, 1,2-Methylenedioxy-8-hydroxy-9-methoxy-13-2′-methoxy-2′-oxo-1′-phenylethylcycloberberine chloride]
melting point: 173 to 175 °C

CCCc1cc2c3ccc(OC)c(O)c3c[n+]3ccc4cc5c(c1c4c23)OCO5 (as salt: chloride) [15b, 1,2-Methylenedioxy-8-hydroxy-9-methoxy-13-propylcycloberberine chloride]
melting point: 165 to 167 °C

CCCCc1cc2c3ccc(OC)c(O)c3c[n+]3ccc4cc5c(c1c4c23)OCO5 (as salt: chloride) [15c, 1,2-Methylenedioxy-8-hydroxy-9-methoxy-13-butylcycloberberine chloride]
melting point: 162 to 164 °C

COc1ccc2c(c[n+]3c4c2ccc2c(OC)c(OC)cc(c24)CC3)c1O (as salt: chloride) [compound 6, 1,2-Dimethoxy-8-hydroxy-9-methoxycycloberberine Chloride]
melting point: 176 to 178 °C and 180 to 182 °C

COc1ccc2c(c[n+]3c4c2ccc2c(O)c(O)cc(c24)CC3)c1O (as salt: chloride) [compound 10, 1,2,8-Trihydroxy-9-methoxycycloberberine Chloride]
melting point: 191 to 193 °C

COc1ccc2c(c[n+]3ccc4cc5c(c6c(Cc7ccc(F)cc7)cc2c3c46)OCO5)c1O [13b, 1,2-Methylenedioxy-8-hydroxy-9-methoxy-13-p-fluorobenzylcycloberberine chloride]
MIC (MSSE ATCC 12228): > 64 µg/mL | MIC (MRSE 16-5): > 64 µg/mL | MIC (MRSA 13-23): > 64 µg/mL | MIC (MSSA 16-1): > 64 µg/mL | MIC (S.s ATCC 15305): > 64 µg/mL | MIC (MSSA ATCC 29213): > 64 µg/mL | MIC (MSSE 16-5): > 64 µg/mL | MIC (MRSA ATCC -BAA-976): > 64 µg/mL | MIC (VISA ATCC 700698): > 64 µg/mL | MIC (MRSA 13-18): > 64 µg/mL | MIC (MSSA 15): > 64 µg/mL | MIC (S.h ATCC 35982): > 64 µg/mL | MIC (VISA ATCC 700699): > 64 µg/mL | MIC (MRSA 16-34): > 64 µg/mL | MIC (MRSA ATCC-B AA-1708): > 64 µg/mL | MIC (MRSA ATCC 43300): > 64 µg/mL | MIC (MRSE 13-3): > 64 µg/mL

COc1ccc2c(c[n+]3ccc4cc5c(c6c(Cc7ccc(F)cc7F)cc2c3c46)OCO5)c1O [13c, 1,2-Methylenedioxy-8-hydroxy-9-methoxy-13-2′,4′-difluorobenzylcycloberberine chloride]
MIC (MSSE ATCC 12228): 8 µg/mL | MIC (MRSE 16-5): 8 µg/mL | MIC (MRSA 13-23): 8 µg/mL | MIC (MSSA 16-1): 8 µg/mL | MIC (S.s ATCC 15305): 16 µg/mL | MIC (MSSA ATCC 29213): 8 µg/mL | MIC (MSSE 16-5): 8 µg/mL | MIC (MRSA ATCC -BAA-976): 8 µg/mL | MIC (VISA ATCC 700698): 8 µg/mL | MIC (MRSA 13-18): 16 µg/mL | MIC (MSSA 15): 8 µg/mL | MIC (S.h ATCC 35982): 8 µg/mL | MIC (VISA ATCC 700699): 8 µg/mL | MIC (MRSA 16-34): 8 µg/mL | MIC (MRSA ATCC-B AA-1708): 4 µg/mL | MIC (MRSA ATCC 43300): 8 µg/mL | MIC (MRSE 13-3): 8 µg/mL
